Values quoted from earlier work, collected in patent US20240032557A1, “AN IRON FORTIFIED TEA COMPOSITION” (Ekaterra Tea Manufacturing USA LLC, priority 2020, published 2024).

Conditions: water at 25° C.

## O=C([O-])/C=C/C(=O)[O-].[Fe+2] [ferrous fumarate]
  solubility: 0.14 g/100 g water
